Values quoted from earlier work in paper PMC5762609 (Journal of Pharmaceutical Analysis, 2016).

## CC(=O)O[C@H]1C(=O)[C@]23C[C@H]2C[C@H]2OC[C@@]2(OC(C)=O)[C@H]3[C@H](OC(=O)c2ccccc2)[C@]2(O)C[C@H](OC(=O)[C@H](O)[C@@H](NC(=O)OC(C)(C)C)c3ccccc3)C(C)=C1C2(C)C [Larotaxel]
  Content in tissues: higher in rich-blood tissues, such as heart, liver, spleen, lung and kidney
  Tissue distribution: distributed widely and rapidly
